Experimental data reported in paper PMC9486805, “Identification of a Phage Display-Derived Peptide Interacting with the N-Terminal Region of Factor VII Activating Protease (FSAP) Enables Characterization of Zymogen Activation” (ACS Chemical Biology, 2022).
Entries after “also recorded” stand apart in the source; their conditions may differ.

What was measured:
pro-urokinase = experiment: Specificity towards pro-enzymes: pro-urokinase; type: biochemical; details: pro-uPA 100 nM; peptide 0-50 μM; PNAPEP 1344 (Fig S7)
Protocol: Fig S7. […]
µM). Pro-uPA (100 nM) and uPA (20 nM) with PNAPEP 1344 (250 µM). Factor X (50 […]
(§1) Bend, IN, USA) except plasminogen and FSAP, which were isolated in house; and pro-uPA was from Grünenthal (Stolberg, Germany). All chromogenic substrates were from Hyphen Biomed (Neuville Sur Oise, France). Experiments were carried out in TBS with Tween-20 (0.1 % wt/ vol) BSA (0.3% wt/vol) and CaCl2 (2 mM). Absorbance at 405 nm was measured over time and the enzyme activity is depicted was measured in duplicates (mean + or -range) and similar results were obtained in 3

pro-FSAP in WT/MI plasma = experiment: Substrate turnover in WT/MI plasma; type: biochemical, human; details: WT/MI citrate plasma 1:12; 25 μM (Fig 6A)
Protocol: (§2) Figure 6 Pro-FSAP activation and clotting in plasma by NNKC9/41: (A) citrate plasma (1:12 dilution) from donors with WT/WT, WT/MI, and MI/MI genotypes and WT-FSAP-deficient plasma (FSAP-DP) were compared. Substrate turnover was monitored after addition of NNKC9/41 or the Ser–Ser linear peptide (25 μM each). Results are shown as mean + range of duplicate wells. (B) Pooled prothrombin-deficient citrated plasma (1:5 dilution) was recalcified with 10 mM CaCl2 and incubated with NNKC9/41 or scrambled control peptide (0–25 μM each) for 60 min at 37 °C in the presence or absence of the FSAP-inhibitory MA-FSAP-38C7 (5 μg/mL). Initiation of clotting was achieved by adding the tissue factor/phospholipid and prothrombin complex concentrate. Clotting time was measured as diluted prothrombin time (dPT) in seconds. Data are the mean of three independent experiments. The relative dPT in % of the untreated control is presented as mean ± standard error (SE) (*p <0.05, two-way analysis of variance (ANOVA) and Bonferroni post-test).
(§3) Human citrate plasma (0.38% w/v) or hirudin plasma (25 μg/mL Lepirudin) was obtained from five healthy donors. […] Hydrolysis of the fluorogenic substrates was measured using a Synergy HI plate reader with excitation at 320 nm and emission at 460 nm at 37 °C for 60 min. The maximal velocity was calculated from the linear part of the progress curve. […]

Factor Xa = experiment: Specificity: factor Xa; type: biochemical; details: Factor Xa 20 nM; peptide 0-50 μM; S-2765 (Fig S7)
Protocol: Fig S7. […]
as §1

pro-FSAP in human plasma [1] = molecular target: T1, pro-FSAP in human plasma (Homo sapiens, UniProt Q14520); experiment: Immunocapture of pro-FSAP from plasma and conversion of pro-uPA to uPA; type: biochemical; details: hirudin plasma 1:12, 1 h at 37 °C; NNKC9/41 0–25 μM, histones 0–25 μg/mL; PNAPEP1344; three donors (Fig 4B)
T1 construct: from tissue; host or cells: human hirudin or citrate plasma from healthy donors, diluted 1:12
Protocol: (§4) Figure 4 Comparison of different methods to measure pro-FSAP activation in plasma: (A) hirudin plasma (1:12 dilution) was incubated with histones (0–25 μg/mL), NNKC9/41, or its Ser–Ser linear control (0–25 μM) and the fluorogenic substrate turnover (Ac–Ala–Lys–Nle–Arg–AMC) was monitored. (B) From the same experiment as in (A) after 1 h incubation at 37 °C, samples were captured on anti-FSAP coated wells and the conversion of added pro-uPA to active uPA was measured by determining the turnover of the chromogenic substrate PNAPEP1344 (25 μM). (C) From the same experiment as in (A) after 1 h incubation at 37 °C, samples were captured on anti-FSAP coated wells and α2-antiplasmin antibody was used to detect the formation of FSAP−α2-antiplasmin complexes. […] In (F), the samples with MA-FSAP-570 were not analyzed since this antibody would interfere in the sandwich ELISA. […]
as §3

pro-FSAP in human plasma [2] = molecular target: T1, pro-FSAP in human plasma; experiment: Activation of endogenous pro-FSAP in plasma, fluorogenic substrate turnover; type: biochemical
pro-FSAP in MI/MI plasma = experiment: Substrate turnover in MI/MI plasma; type: biochemical, human; details: MI/MI citrate plasma 1:12; 25 μM (Fig 6A)
Protocol: as §2, §3

pro-FSAP in human plasma [3] = molecular target: T1, pro-FSAP in human plasma; experiment: Formation of FSAP–alpha2-antiplasmin complexes in plasma; type: biochemical; details: hirudin plasma 1:12, 1 h at 37 °C; NNKC9/41 0–25 μM, histones 0–25 μg/mL; three donors (Fig 4C)
Protocol: as §4, §3

plasmin = experiment: Specificity: plasmin; type: biochemical; details: plasmin 20 nM; peptide 0-50 μM; CS41 (Fig S7)
Protocol: Fig S7. […]
as §1

pro-FSAP in WT/WT plasma = experiment: Substrate turnover in WT/WT plasma; type: biochemical, human; details: WT/WT citrate plasma 1:12; 25 μM (Fig 6A)
Protocol: as §2, §3

factor X = experiment: Specificity towards pro-enzymes: factor X; type: biochemical; details: Factor X 50 nM; peptide 0-50 μM; S-2765 (Fig S7)
Protocol: Fig S7. […]
as §1

T1 sequence (Q14520 24-560): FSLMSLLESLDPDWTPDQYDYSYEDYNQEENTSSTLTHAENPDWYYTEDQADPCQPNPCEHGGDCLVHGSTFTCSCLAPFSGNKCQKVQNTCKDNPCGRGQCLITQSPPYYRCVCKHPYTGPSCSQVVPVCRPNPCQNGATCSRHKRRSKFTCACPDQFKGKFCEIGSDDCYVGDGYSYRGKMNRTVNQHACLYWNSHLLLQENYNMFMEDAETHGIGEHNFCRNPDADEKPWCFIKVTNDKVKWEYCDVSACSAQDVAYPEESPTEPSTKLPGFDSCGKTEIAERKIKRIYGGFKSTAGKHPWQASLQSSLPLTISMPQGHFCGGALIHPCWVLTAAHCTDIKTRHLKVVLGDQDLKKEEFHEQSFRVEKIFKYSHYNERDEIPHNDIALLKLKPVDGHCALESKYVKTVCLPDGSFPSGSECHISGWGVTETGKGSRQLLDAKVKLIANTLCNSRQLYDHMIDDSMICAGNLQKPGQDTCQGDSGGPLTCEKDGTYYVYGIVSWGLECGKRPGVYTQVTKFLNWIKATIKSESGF

With CRGAMWMYKRC [NNKC9/41] the effect on activity (pro-urokinase) was “did not influence the activity”, the substrate turnover (pro-FSAP in WT/MI plasma) was “low turnover” and the effect on activity (Factor Xa) was “did not influence the activity”. The pro-uPA conversion (pro-FSAP in human plasma [1]) was “weaker than histones; also recorded: concentration-dependent effect”, the “effect in citrate plasma 1:2” value (pro-FSAP in human plasma [2]; citrate plasma 1:2, 10 μM, 3 donors (Fig S5)) was “completely abolished” and the “pro-FSAP activation in 1:2 diluted plasma vs higher dilution” value (pro-FSAP in human plasma [2]; hirudin and citrate plasma 1:2 (Fig S5)) was “lower pro-FSAP activation”. For the same sequence, the substrate turnover (pro-FSAP in MI/MI plasma) was “none”, the “FSAP–alpha2-antiplasmin complex formation” value (pro-FSAP in human plasma [3]) was “weaker than histones; also recorded: concentration-dependent effect” and the effect on activity (plasmin) was “did not influence the activity”. The substrate turnover (pro-FSAP in WT/WT plasma) was “high substrate turnover” and the effect on activity (factor X) was “did not influence the activity”.
